In test [1] the test system is HL60 (human promyelocytic leukemia). The test can be described thus: Cytotoxicity assay (CellTiter-Glo), HL-60. Format: cell-based. The settings on record: 72 h, HL-60 cells, three days culture, rounded to 1 significant figure. The protocol: (§1) The cell lines A549 (human lung adenocarcinoma), OVCAR-3 (human ovarian carcinoma), HL60 (human promyelocytic leukemia), DLD1 (human colon adenocarcinoma) and HCT116 (human colon carcinoma) were obtained from the American Type Culture Collection, Manassas, Va., U.S.A. All products were used in accordance with manufacturer's directions. The histone phosphorylation (p-H3) assay was conducted in duplicate and the cytotoxicity assays were conducted in triplicate, in each case with solvent control.
(§2) Log-phase cells were trypsinized, collected by centrifugation, and resuspended in a small volume of fresh medium, and the density of viable cells was determined following Trypan Blue staining. Cells were diluted in fresh media, the test compounds (concentrations between 0.1 μM and 200 μM, dissolved in DMSO, 50 μL) added immediately after dilution to achieve a final DMSO concentration of 0.5%, then the suspensions added at 150 μL/well to 96-well plates, and incubated overnight to allow attachment in the case of adherent cells. The cells were cultured for three days (about three doubling times). The cells were then collected by centrifugation, and 100 μL of the culture supernatant was replaced by the CellTiter-Glo reagent. After incubation for 15 minutes at room temperature, the plate was read with a luminometer. […] The table gives cytotoxicity IC50s in μM, rounded to 1 significant figure.
(ATP-based viability assays read luminescence as a measure of living cells.)

In test [2] the test system is OVCAR-3 (human ovarian carcinoma). The test can be described thus: Cytotoxicity assay (CellTiter-Glo), OVCAR-3. It is filed as cell-based. To be noted: 72 h, OVCAR-3 cells, three days culture, rounded to 1 significant figure. The protocol: as §1, §2
Test [3] concerns HCT116 (human colon carcinoma). The test can be described thus: Cytotoxicity assay (CellTiter-Glo), HCT116. Format: cell-based. The settings on record: HCT-116, 72 h, HCT116 cells, three days culture, rounded to 1 significant figure. The method, then:
as §1, §2

The subject of test [4] is A549 (human lung adenocarcinoma). The test can be described thus: Cytotoxicity assay (CellTiter-Glo), A549. It is filed as cell-based. The settings on record: 72 h, A549 cells, three days culture, rounded to 1 significant figure. The protocol:
as §1, §2

Test [5] deals with DLD1 (human colon adenocarcinoma). Put plainly: Cytotoxicity assay (CellTiter-Glo), DLD1. To be noted: DLD-1, 72 h, DLD1 cells, three days culture, rounded to 1 significant figure. Format: cell-based. The method, then: as §1, §2
Test [6] relates to HL60 (human promyelocytic leukemia) xenograft. The test can be described thus: HL60 xenograft assay, oral administration. It is filed as in vivo. To be noted: Mus musculus, HL-60, po, nu/nu mice, 200 mg/Kg by gavage once/day days 1-5 and 8-10, measured the day after the last day of treatment (In vivo Example 3), read-out: inhibition of tumor growth compared to vehicle. The protocol: Male athymic nu/nu mice, 6-8 weeks old (about 20 g), were implanted subcutaneously in the right fore flank with about 1×10^7 cells of the HL60 (human promyelocytic leukemia) line that had been grown in antibiotic-free medium for at least two passages. About 6 days after tumor implantation, when the tumor weight was about 50-250 mg, the mice were assigned to treatment groups. Test compounds were suspended at 20 mg/mL in 0.55 wt. % aqueous carboxymethylcellulose. Groups of mice were treated with compounds 2A, 9A, and 12A at 200 mg/Kg by gavage once/day on days 1-5 and 8-10 from the start of treatment, with vehicle control. Tumor growth inhibition was measured on the last day of treatment.
The experiment was conducted generally as described in In vivo Example 1. Groups of mice were treated with compounds 5A, 6A, 7A, 8A, and 10A at 200 mg/Kg by gavage once/day on days 1-5 and 8-10 from the start of treatment, with vehicle control. Tumor growth inhibition was measured the day after the last day of treatment.

In test [7] the test system is tubulin. Put plainly: Inhibition of tubulin polymerization, cell-free fluorescence assay. It is filed as biochemical.
For test [8], the system named is P388 and P388/ADR (doxorubicin-resistant) cells. The test can be described thus: Cross-resistance, cytotoxicity in P388 and P388/ADR cells. It is filed as cell-based, mouse. To be noted: cytotoxicity in P388/ADR (doxorubicin-resistant) versus P388 cells. The protocol:
Compounds 2A, 9A, and 12A were tested for cross-resistance in the P388 (mouse leukemia) cell line, by assaying its cytotoxicity in both P388 and P388/ADR (doxorubicin-resistant) cells. […] Several of the more cytotoxic compounds of formula A were tested and found not to be substrates for P-glycoprotein, an efflux pump commonly associated with multidrug-resistance in cancer cells.

The structures appear in SMILES notation.

The text below walks through data of patent US8410163B2, “Substituted 4-amino-5-benzoyl-2-(phenylamino)thiophene-3-carbonitriles and substituted 4-amino-5-benzoyl-2-(phenylamino)thiophene-3-carboxamides as tubulin polymerization inhibitors” (Telik, Inc., priority 2009, dated 2013).

The IC50 is the concentration at which inhibition is half-maximal. Higher therefore signals lower potency.

Take `COc1ccc(Nc2sc(C(=O)c3ccc(Cl)cc3)c(N)c2C(N)=O)cc1` [Compound 1A, 4-amino-5-(4-chlorobenzoyl)-2-[(4-methoxyphenyl)amino]thiophene-3-carboxamide]: the IC50 was found to be 10 nM in test [1]; 10 nM in test [2]; 10 nM in test [3]; 10 nM in test [4]; 7 nM in test [5].
As for `COc1ccc(Nc2sc(C(=O)c3ccc(Br)cc3)c(N)c2C#N)cc1` [Compound 3A], in test [4], the midpoint of inhibition, the IC50, lay at 20 nM.
Regarding `CCOc1ccc(Nc2sc(C(=O)c3ccc(Cl)cc3)c(N)c2C#N)cc1` [Compound 4A], the IC50 in test [1] was found to be 40 nM; in test [2], 30 nM; in test [3] it was 90 nM; in test [4], 20 nM; in test [5], 30 nM.
Regarding `COc1ccc(Nc2sc(C(=O)c3ccc(Cl)cc3)c(N)c2C#N)cc1OC` [Compound 5A], the IC50 in test [1], in test [2], in test [3], in test [4] and in test [5] was 20 nM throughout. Moreover, the inhibition in vivo at 200 mg/kg in test [6] worked out at 45%.
In the case of `CCOc1ccc(Nc2sc(C(=O)c3ccc(OC)cc3OC)c(N)c2C#N)cc1` [Compound 6A, 4-amino-5-(2,4-dimethoxybenzoyl)-2-[(4-ethoxyphenyl)amino]thiophene-3-carbonitrile], the IC50 in test [1] worked out at 50 nM; in test [3], 30 nM; in test [4], 30 nM. Besides, the inhibition in vivo at 200 mg/kg in test [6] was determined as 89%.
With `COc1ccc(Nc2sc(C(=O)c3ccc(OC)cc3)c(N)c2C(N)=O)cc1` [Compound 8A], the IC50 in test [1] is 30 nM; in test [2] it was 10 nM; in test [4], 40 nM; in test [5], 7 nM. Besides, the inhibition in vivo at 200 mg/kg in test [6] was 10%.
Taken in the same sequence, the figures for `COc1ccc(C(=O)c2sc(Nc3ccc4c(c3)OCO4)c(C#N)c2N)cc1` [Compound 10A] were 40 nM, 40 nM, 40 nM, 30 nM and 67%.
Regarding `CCN(CC)c1ccc(C(=O)c2sc(Nc3ccc(OC)c(OC)c3)c(C#N)c2N)cc1` [Compound 11A], the IC50 in test [4] is 50 nM.
Regarding `CCOc1ccc(Nc2sc(C(=O)c3ccc(Cl)cc3)c(N)c2C(N)=O)cc1` [Compound 13A], the IC50 is 30 nM in test [1] and 60 nM in test [4].
For the compound `Cc1ccc(Nc2sc(C(=O)c3ccc(Cl)cc3)c(N)c2C#N)cc1` [Compound 14A], the IC50 in test [1] is 70 nM; in test [3] it was 80 nM; in test [4], 100 nM. In addition, in test [7], the “inhibition of tubulin polymerization (cell-free)” value was “inhibition of tubulin polymerization”.
For `COc1ccc(C(=O)c2sc(Nc3ccc4c(c3)OCO4)c(C#N)c2N)cc1OC` [Compound 16A], the figures for the IC50 in test [1] and in test [4] were 60 nM and 100 nM, respectively.
Taken in the same sequence, the figures for `CCOc1ccc(Nc2sc(C(=O)c3ccc(OC)cc3)c(N)c2C#N)cc1` [Compound 17A] were 100 nM and 100 nM.
On to `Cc1ccc(C(=O)c2sc(Nc3ccc4c(c3)OCO4)c(C#N)c2N)cc1` [Compound 19A], for which half-maximal inhibition in test [4] (IC50) was put at 200 nM.
Compound `N#Cc1ccc(C(=O)c2sc(Nc3ccc4c(c3)OCO4)c(C#N)c2N)cc1` [Compound 20A] had an IC50 in test [4] of 200 nM.
In turn, `COc1ccccc1C(=O)c1sc(Nc2ccc3c(c2)OCO3)c(C#N)c1N` [Compound 21A] had an IC50 in test [4] of 200 nM. The “inhibition of tubulin polymerization (cell-free)” value in test [7] is recorded as “inhibition of tubulin polymerization”.
In test [4], `COc1ccc(Nc2sc(C(=O)c3ccc(OC)cc3OC)c(N)c2C#N)c(OC)c1` [Compound 22A] registered an IC50 of 200 nM.
In test [4], `N#Cc1c(Nc2ccc3c(c2)OCO3)sc(C(=O)c2ccc(Br)cc2)c1N` [Compound 23A] had an IC50 of 300 nM.
Regarding `N#Cc1c(Nc2ccc3c(c2)OCO3)sc(C(=O)c2ccc(Cl)cc2)c1N` [Compound 24A], the concentration for half-maximal inhibition (IC50) was 80 nM in test [1] and 300 nM in test [4].
Take `COc1cccc(C(=O)c2sc(Nc3ccc4c(c3)OCO4)c(C#N)c2N)c1` [Compound 25A]: in test [4], half-maximal inhibition (IC50) required 500 nM.
With `CCN(CC)c1ccc(C(=O)c2sc(Nc3ccc(OC)cc3OC)c(C#N)c2N)cc1` [Compound 26A], the IC50 in test [4] worked out at 500 nM.
On to `NC(=O)c1c(Nc2ccc3c(c2)OCO3)sc(C(=O)c2ccc(Cl)cc2)c1N` [Compound 27A, 4-amino-2-(1,3-benzodioxol-5-ylamino)-5-(4-chlorobenzoyl)thiophene-3-carboxamide], for which the IC50 in test [1] was found to be 200 nM; in test [2] it was 300 nM; in test [3], 600 nM; in test [4], 600 nM.
For `COc1ccc(C(=O)c2sc(Nc3ccc(OC)c(OC)c3)c(C#N)c2N)cc1` [Compound 28A], 700 nM corresponded to half-maximal inhibition in test [4] (IC50).
On the same count and under the same terms, to `CC(C)c1ccc(Nc2sc(C(=O)c3ccc(Cl)cc3)c(N)c2C#N)cc1` [Compound 29A] belongs 800 nM; to `COC(=O)c1ccc(Nc2sc(C(=O)c3ccc(Cl)cc3)c(N)c2C#N)cc1` [Compound 30A], 1000 nM.
In test [4], `N#Cc1c(Nc2ccc(C(F)(F)F)cc2)sc(C(=O)c2ccc(Cl)cc2)c1N` [Compound 31A] displayed an IC50 of 1000 nM.
Regarding `COc1ccc(C(=O)c2sc(Nc3ccc(OC)cc3OC)c(C#N)c2N)cc1` [Compound 32A], it took 1000 nM to reach half-maximal inhibition in test [4] (IC50).
Same read-out and setting: to `N#Cc1c(Nc2ccc3c(c2)OCO3)sc(C(=O)c2ccc(F)cc2)c1N` [Compound 33A] belongs 1000 nM.
On the same count and under the same terms, for `N#Cc1cccc(C(=O)c2sc(Nc3ccc4c(c3)OCO4)c(C#N)c2N)c1` [Compound 34A] the value was 1000 nM; for `N#Cc1c(Nc2ccc3c(c2)OCO3)sc(C(=O)c2cccc(Cl)c2)c1N` [Compound 35A], 1000 nM.
Same read-out and setting: for `CN(C)CCOc1ccc(Nc2sc(C(=O)c3ccc(Cl)cc3)c(N)c2C#N)cc1` [Compound 36A] the value was 1000 nM.
Compound `N#Cc1c(Nc2ccc([N+](=O)[O-])cc2)sc(C(=O)c2ccc(Cl)cc2)c1N` [Compound 37A] returned an IC50 in test [4] of 2000 nM.
As to `N#Cc1c(Nc2ccc(F)cc2)sc(C(=O)c2ccc(Cl)cc2)c1N` [Compound 38A], in test [4], the IC50 worked out at 2000 nM.
Still for that read-out and setting: to `COc1ccc(Nc2sc(C(=O)c3ccc(OCCN(C)C)cc3)c(N)c2C#N)cc1` [Compound 39A] belongs 2000 nM; to `N#Cc1c(Nc2ccc3c(c2)OCO3)sc(C(=O)c2cccc(Br)c2)c1N` [Compound 41A], 2000 nM.
As for `COc1cc2c(c(OC)c1OC)-c1ccc(OC)c(=O)cc1[C@@H](NC(C)=O)CC2` [colchicine], in test [8], the resistance ratio worked out at 70 fold.
Turning to `COc1cccc2c1C(=O)c1c(O)c3c(c(O)c1C2=O)C[C@@](O)(C(=O)CO)C[C@@H]3O[C@H]1C[C@H](N)[C@H](O)[C@H](C)O1` [doxorubicin], in test [8], the resistance ratio is on record as 260 fold.
The same measure, in the same setting: for `CC[C@]1(O)C[C@@H]2CN(CCc3c([nH]c4ccccc34)[C@@](C(=O)OC)(c3cc4c(cc3OC)N(C)[C@H]3[C@@](O)(C(=O)OC)[C@H](OC(C)=O)[C@]5(CC)C=CCN6CC[C@]43[C@@H]65)C2)C1` [vinblastine] the value was 50 fold.
